Measurements reported in patent publication US20250314644A1, “METHODS COMPRISING DETECTION OF ADP-HEPTOSE” (CHILDREN'S HOSPITAL MEDICAL CENTER, priority 2023, published 2025).

Key:
Dnmt3a^KO cells = assay: RNA-sequencing of HSPCs treated in vitro with ADP-heptose or H2O for 90 minutes; type: cell-based, mouse
healthy BM cells = assay: Xenograft of healthy cells in NSG mice treated with ADP-heptose; type: in vivo, human; details: immunocompromised mice
Experimental: NOD.Cg-Prkdc^scidIl2rg^tm1Wj1/SzJ (NSG)^75 were bred and maintained by the CCHMC Comprehensive Mouse Core. For patient derived xenografts, NSG mice (sub-lethally conditioned with 2 Gy of whole-body irradiation) were injected tail vein with healthy CD34+ cells (1×10^6 cells per mouse) and MDS patient cells (5×10^6 cells per mouse) in 200 μl of sterile PBS. Mice were then given sterile water or ADP-heptose (0.5 mg/kg) dissolved in sterile water at the indicated times. Mice were monitored for human engraftment in BM aspirates Briefly, 1×10^6 BM cells from each sample were incubated with huCD45 (Cat no. 555485, BDPharmingen) and huCD33 (Cat no. 555450, BDPharmingen) antibodies diluted 1:100 in a solution of PBS, 0.2% FBS for 30 minutes on ice. Cells were washed once with PBS, resuspended in PBS with 0.2% FBS, and immediately analyzed by flow cytometry.

Nc1ncnc2c1ncn2[C@@H]1O[C@H](COP(=O)(O)OP(=O)(O)O[C@@H]2O[C@H]([C@H](O)CO)[C@@H](O)[C@H](O)[C@@H]2O)[C@@H](O)[C@H]1O [ADP-heptose, ADP-D-glycero-β-D-manno-heptose]
gene expression changes (global transcriptomic analysis) (Dnmt3a^KO cells; Dnmt3a^−/− compared to WT LSKs): significant gene expression changes
logFC (Dnmt3a^KO cells; gene 2610037D02Rik, Dnmt3a^KO cells): −0.596
logFC (Dnmt3a^KO cells; gene 5031425F14Rik, Dnmt3a^KO cells): 0.6597
logFC (Dnmt3a^KO cells; gene 6330549D23Rik, Dnmt3a^KO cells): 0.6997
logFC (Dnmt3a^KO cells; gene A130077B15Rik, Dnmt3a^KO cells): −0.592
logFC (Dnmt3a^KO cells; gene AF251705, Dnmt3a^KO cells): 0.6212
logFC (Dnmt3a^KO cells; gene Adm, Dnmt3a^KO cells): 1.598
logFC (Dnmt3a^KO cells; gene Afp, Dnmt3a^KO cells): 0.7049
logFC (Dnmt3a^KO cells; gene Ahrr, Dnmt3a^KO cells): 1.585
logFC (Dnmt3a^KO cells; gene Angptl2, Dnmt3a^KO cells): 0.6418
logFC (Dnmt3a^KO cells; gene Avil, Dnmt3a^KO cells): 1.557
logFC (Dnmt3a^KO cells; gene Baiap2, Dnmt3a^KO cells): 0.7135
logFC (Dnmt3a^KO cells; gene Baiap2l1, Dnmt3a^KO cells): 0.6616
logFC (Dnmt3a^KO cells; gene C1qb, Dnmt3a^KO cells): 0.6904
logFC (Dnmt3a^KO cells; gene C1qc, Dnmt3a^KO cells): 0.6327
logFC (Dnmt3a^KO cells; gene Carns1, Dnmt3a^KO cells): 0.6216
logFC (Dnmt3a^KO cells; gene Ccl2, Dnmt3a^KO cells): 0.6432
logFC (Dnmt3a^KO cells; gene Ccl24, Dnmt3a^KO cells): 1.576
logFC (Dnmt3a^KO cells; gene Cd28, Dnmt3a^KO cells): 0.6845
logFC (Dnmt3a^KO cells; gene Cd40, Dnmt3a^KO cells): 0.6974
logFC (Dnmt3a^KO cells; gene Cd74, Dnmt3a^KO cells): 0.6203
logFC (Dnmt3a^KO cells; gene Ces1d, Dnmt3a^KO cells): 0.5862
logFC (Dnmt3a^KO cells; gene Chst10, Dnmt3a^KO cells): 0.609
logFC (Dnmt3a^KO cells; gene Ciita, Dnmt3a^KO cells): 0.6462
logFC (Dnmt3a^KO cells; gene Clec10a, Dnmt3a^KO cells): 0.615
logFC (Dnmt3a^KO cells; gene Col1a1, Dnmt3a^KO cells): 0.5944
logFC (Dnmt3a^KO cells; gene Col15a1, Dnmt3a^KO cells): 0.6093
logFC (Dnmt3a^KO cells; gene Cxcl3, Dnmt3a^KO cells): 0.6695
logFC (Dnmt3a^KO cells; gene Cxcr2, Dnmt3a^KO cells): −0.587
logFC (Dnmt3a^KO cells; gene Dcstamp, Dnmt3a^KO cells): 0.7137
logFC (Dnmt3a^KO cells; gene Dnah6, Dnmt3a^KO cells): 0.6061
logFC (Dnmt3a^KO cells; gene Dqx1, Dnmt3a^KO cells): 0.6377
logFC (Dnmt3a^KO cells; gene Emp1, Dnmt3a^KO cells): 0.6342
logFC (Dnmt3a^KO cells; gene Etohi1, Dnmt3a^KO cells): −0.586
logFC (Dnmt3a^KO cells; gene Fam167a, Dnmt3a^KO cells): 0.6175
logFC (Dnmt3a^KO cells; gene Fblim1, Dnmt3a^KO cells): 0.5971
logFC (Dnmt3a^KO cells; gene Flrt2, Dnmt3a^KO cells): 0.7192
logFC (Dnmt3a^KO cells; gene Gm8369, Dnmt3a^KO cells): −0.599
logFC (Dnmt3a^KO cells; gene Gm17455, Dnmt3a^KO cells): 0.7125
logFC (Dnmt3a^KO cells; gene Grap, Dnmt3a^KO cells): 0.6793
logFC (Dnmt3a^KO cells; gene Grm1, Dnmt3a^KO cells): 1.762
logFC (Dnmt3a^KO cells; gene Gzmb, Dnmt3a^KO cells): 0.674
logFC (Dnmt3a^KO cells; gene Gzmc, Dnmt3a^KO cells): 1.782
logFC (Dnmt3a^KO cells; gene H2-DMb2, Dnmt3a^KO cells): 0.6529
logFC (Dnmt3a^KO cells; gene H2-Eb1, Dnmt3a^KO cells): 0.5954
logFC (Dnmt3a^KO cells; gene H2-Eb2, Dnmt3a^KO cells): 0.6221
logFC (Dnmt3a^KO cells; gene H2-K2, Dnmt3a^KO cells): 0.6688
logFC (Dnmt3a^KO cells; gene Hic1, Dnmt3a^KO cells): 1.783
logFC (Dnmt3a^KO cells; gene Hist1h2ag, Dnmt3a^KO cells): 0.6273
logFC (Dnmt3a^KO cells; gene Hist1h2bc, Dnmt3a^KO cells): 0.6716
logFC (Dnmt3a^KO cells; gene Hist1h2be, Dnmt3a^KO cells): 0.6244
logFC (Dnmt3a^KO cells; gene Hist1h2bf, Dnmt3a^KO cells): 0.6891
logFC (Dnmt3a^KO cells; gene Hist1h2bj, Dnmt3a^KO cells): 0.665
logFC (Dnmt3a^KO cells; gene Hist1h4d, Dnmt3a^KO cells): 0.592
logFC (Dnmt3a^KO cells; gene Hyal1, Dnmt3a^KO cells): 0.599
logFC (Dnmt3a^KO cells; gene Igf2bp2, Dnmt3a^KO cells): 0.6643
logFC (Dnmt3a^KO cells; gene Il12rb1, Dnmt3a^KO cells): 0.6261
logFC (Dnmt3a^KO cells; gene Iqcg, Dnmt3a^KO cells): 0.6826
logFC (Dnmt3a^KO cells; gene Itgb7, Dnmt3a^KO cells): 0.6248
logFC (Dnmt3a^KO cells; gene Lars2, Dnmt3a^KO cells): 0.6326
logFC (Dnmt3a^KO cells; gene Lif, Dnmt3a^KO cells): 0.6432
logFC (Dnmt3a^KO cells; gene Loxl3, Dnmt3a^KO cells): 0.5934
logFC (Dnmt3a^KO cells; gene Lrrc51, Dnmt3a^KO cells): 0.669
logFC (Dnmt3a^KO cells; gene Map3k15, Dnmt3a^KO cells): 0.7124
logFC (Dnmt3a^KO cells; gene Matk, Dnmt3a^KO cells): 0.5934
logFC (Dnmt3a^KO cells; gene Mir6236, Dnmt3a^KO cells): 0.6256
logFC (Dnmt3a^KO cells; gene Mmp12, Dnmt3a^KO cells): 0.7097
logFC (Dnmt3a^KO cells; gene Mrc1, Dnmt3a^KO cells): 0.7023
logFC (Dnmt3a^KO cells; gene N4bp3, Dnmt3a^KO cells): 0.6853
logFC (Dnmt3a^KO cells; gene Nqo1, Dnmt3a^KO cells): 0.7094
logFC (Dnmt3a^KO cells; gene Orm1, Dnmt3a^KO cells): −0.598
logFC (Dnmt3a^KO cells; gene P2rx3, Dnmt3a^KO cells): 0.7048
logFC (Dnmt3a^KO cells; gene Pcbp3, Dnmt3a^KO cells): 0.6997
logFC (Dnmt3a^KO cells; gene Pf4, Dnmt3a^KO cells): 0.7165
logFC (Dnmt3a^KO cells; gene Phf1, Dnmt3a^KO cells): 0.595
logFC (Dnmt3a^KO cells; gene Plekhn1, Dnmt3a^KO cells): 0.6207
logFC (Dnmt3a^KO cells; gene Ppp1r3d, Dnmt3a^KO cells): −0.595
logFC (Dnmt3a^KO cells; gene Procr, Dnmt3a^KO cells): −0.595
logFC (Dnmt3a^KO cells; gene Ptgs1, Dnmt3a^KO cells): 0.6215
logFC (Dnmt3a^KO cells; gene Ptprn, Dnmt3a^KO cells): 0.5867
logFC (Dnmt3a^KO cells; gene Pvrl1, Dnmt3a^KO cells): 0.663
logFC (Dnmt3a^KO cells; gene Rap1gap, Dnmt3a^KO cells): 0.6406
logFC (Dnmt3a^KO cells; gene Retnlg, Dnmt3a^KO cells): 0.6829
logFC (Dnmt3a^KO cells; gene Rn45s, Dnmt3a^KO cells): 0.6912
logFC (Dnmt3a^KO cells; gene Rptoros, Dnmt3a^KO cells): 0.6692
logFC (Dnmt3a^KO cells; gene Scn3a, Dnmt3a^KO cells): 1.51
logFC (Dnmt3a^KO cells; gene Serpinb2, Dnmt3a^KO cells): 0.6945
logFC (Dnmt3a^KO cells; gene Slc36a2, Dnmt3a^KO cells): 0.7191
logFC (Dnmt3a^KO cells; gene Spag1, Dnmt3a^KO cells): −0.587
logFC (Dnmt3a^KO cells; gene Spry1, Dnmt3a^KO cells): −0.595
logFC (Dnmt3a^KO cells; gene Srp54b, Dnmt3a^KO cells): 1.636
logFC (Dnmt3a^KO cells; gene Stfa2l1, Dnmt3a^KO cells): −0.599
logFC (Dnmt3a^KO cells; gene Tdrkh, Dnmt3a^KO cells): 0.5973
logFC (Dnmt3a^KO cells; gene Tesc, Dnmt3a^KO cells): 0.607
logFC (Dnmt3a^KO cells; gene Tjp3, Dnmt3a^KO cells): 0.5969
logFC (Dnmt3a^KO cells; gene Tlr5, Dnmt3a^KO cells): 0.5879
logFC (Dnmt3a^KO cells; gene Tpmt, Dnmt3a^KO cells): −0.598
logFC (Dnmt3a^KO cells; gene Trem2, Dnmt3a^KO cells): 0.6257
logFC (Dnmt3a^KO cells; gene Trib3, Dnmt3a^KO cells): 0.677
logFC (Dnmt3a^KO cells; gene Zfp184, Dnmt3a^KO cells): −0.594
logFC (Dnmt3a^KO cells; gene Zfp784, Dnmt3a^KO cells): 0.6147
engraftment of healthy BM cells (healthy BM cells): no effect
